For 14 compounds, IC50, LD50 and GI50 results are on record in ChEMBL document CHEMBL4613209, “Quinolone hybrids and their anti-cancer activities: An overview” (Eur J Med Chem, 2019).

In brackets after ≈: the same amount, converted by molar mass.

The subject of series [1] is SMMC-7721. Nature of the series: Anticancer activity against human SMMC7721 cells after 48 to 72 hrs by MTT assay. In kind it is functional, cell-based. Background: Tetrazolium assays rely on reduction of a dye to a coloured formazan, in cell work by metabolically active cells.
Series [2] deals with HCT-116. As to the kind of experiment: Anticancer activity against human HCT116 cells after 48 to 72 hrs by MTT assay. In kind it is functional, cell-based.
The test system of series [3] is Jurkat. Nature of the series: Anticancer activity against human Jurkat cells after 48 to 72 hrs by MTT assay. In kind it is functional, cell-based.
Series [4] deals with PC-3. As to the kind of experiment: Cytotoxicity against human PC3 cells assessed as reduction in cell viability after 48 hrs by SRB assay. In kind it is functional, cell-based. As to conditions: PC-3, 48 h. On the technique in general: In SRB staining, fixed cells bind dye roughly in proportion to their protein.
Series [5] deals with DU-145. As to the kind of experiment: Cytotoxicity against human DU145 cells assessed as reduction in cell viability after 48 hrs by SRB assay. Type of series: functional, cell-based. As to conditions: DU-145, 48 h.
The subject of series [6] is HT-1080. As to the kind of experiment: Cytotoxicity against human HT1080 cells assessed as reduction in cell viability. Type of series: functional, cell-based.
Series [7] deals with K562. Nature of the series: Anticancer activity against human K562 cells. Type of series: functional, cell-based.
In series [8] the test system is HepG2. As to the kind of experiment: Anticancer activity against human HepG2 cells by MTT assay. Type of series: functional, cell-based.
Series [9] has as its system HT-29. As to the kind of experiment: Anticancer activity against human HT-29 cells by MTT assay. Type of series: functional, cell-based.
For series [10], the system named is HL-60. Nature of the series: Anticancer activity against human HL60 cells by MTT assay. In kind it is functional, cell-based.
Series [11] relates to A549. Nature of the series: Anticancer activity against human A549 cells by MTT assay. In kind it is functional, cell-based.
Series [12] has as its system HeLa. Nature of the series: Anticancer activity against human HeLa cells by MTT assay. In kind it is functional, cell-based.
The subject of series [13] is PANC-1. As to the kind of experiment: Antiproliferative activity against human PANC1 cells after 48 hrs by MTT assay. In kind it is functional, cell-based. As to conditions: PANC-1, 48 h.
Series [14] deals with HCT-116. As to the kind of experiment: Antiproliferative activity against human HCT116 cells after 48 hrs by MTT assay. Type of series: functional, cell-based. As to conditions: HCT-116, 48 h.
Series [15] relates to HeLa. Nature of the series: Antiproliferative activity against human HeLa cells after 48 hrs by MTT assay. Type of series: functional, cell-based.
Series [16] has as its system A549. As to the kind of experiment: Antiproliferative activity against human A549 cells after 48 hrs by MTT assay. As to conditions: A549, 48 h. Type of series: functional, cell-based.
For series [17], the system named is A549. As to the kind of experiment: Cytotoxicity against human A549 cells assessed as reduction in cell viability. In kind it is functional, cell-based.
The subject of series [18] is HT-29. Nature of the series: Cytotoxicity against human HT-29 cells assessed as reduction in cell viability. In kind it is functional, cell-based.
The test system of series [19] is P388. Nature of the series: Cytotoxicity against mouse P388 cells assessed as reduction in cell viability. In kind it is functional, cell-based.
Series [20] deals with P388. As to the kind of experiment: Cytotoxicity against doxorubicin resistant mouse P388 cells assessed as reduction in cell viability. In kind it is functional, cell-based.
The test system of series [21] is B16-F10. Nature of the series: Cytotoxicity against mouse B16F10 cells assessed as reduction in cell viability. Type of series: functional, cell-based.
Series [22] is described as follows: Toxicity in mouse xenografted with human CX-1 cells. As to conditions: in vivo. (In general: In xenograft studies the graft and the host belong to different species.)
Series [23] can be described thus: Toxicity in mouse xenografted with human MB-9812 cells.
Series [24] relates to A549. As to the kind of experiment: Anticancer activity against human A549 cells. In kind it is functional, cell-based.
Series [25] deals with HT-29. As to the kind of experiment: Anticancer activity against human HT-29 cells. In kind it is functional, cell-based.
Series [26] deals with HCT-8. As to the kind of experiment: Anticancer activity against human HCT8 cells. Type of series: functional, cell-based.
Series [27] deals with MCF7. Nature of the series: Anticancer activity against human MCF7 cells. Type of series: functional, cell-based.
Series [28] deals with B16-F10. Nature of the series: Anticancer activity against mouse B16F10 cells. In kind it is functional, cell-based.
Series [29] deals with Lewis lung carcinoma cell line. Nature of the series: Anticancer activity against mouse LLC cells. In kind it is functional, cell-based.
Series [30] concerns P388. As to the kind of experiment: Anticancer activity against mouse P388 cells. Type of series: functional, cell-based.
The test system of series [31] is P388. As to the kind of experiment: Anticancer activity against doxorubicin resistant mouse P388 cells. In kind it is functional, cell-based.
Series [32] relates to K562. Nature of the series: Anticancer activity against human K562 cells after 48 to 72 hrs by MTT assay. In kind it is functional, cell-based.
For series [33], the system named is Hep 3B2. Nature of the series: Anticancer activity against human Hep3B cells after 48 to 72 hrs by MTT assay. Type of series: functional, cell-based.
Series [34] deals with MCF7. As to the kind of experiment: Cytotoxicity against human MCF7 cells assessed as reduction in cell viability by SRB assay. In kind it is functional, cell-based.
For series [35], the system named is HCT-116. As to the kind of experiment: Cytotoxicity against human HCT116 cells assessed as reduction in cell viability by SRB assay. Type of series: functional, cell-based.
Series [36] relates to SiHa. As to the kind of experiment: Growth inhibition of human SiHa cells after 48 hrs by SRB assay. Type of series: functional.
Series [37] deals with MDA-MB-231. Nature of the series: Growth inhibition of human MDA-MB-231 cells after 48 hrs by SRB assay. In kind it is functional. As to conditions: MDA-MB-231, 48 h.
Series [38] deals with PANC-1. As to the kind of experiment: Growth inhibition of human PANC1 cells after 48 hrs by SRB assay. Type of series: functional. As to conditions: PANC-1, 48 h.

Usually IC50 stands for the concentration that inhibits the measured activity by half. The term LD50 denotes the dose expected to kill half of the subjects tested. A low value points to greater toxicity. The GI50 is the concentration at which growth is held to half of that of the control.

As for `COc1cc(/C=N/n2c(SCc3ccccc3)nnc2-c2cn(C3CC3)c3cc(N4CCNCC4)c(F)cc3c2=O)cc(OC)c1OC`, the IC50 in [1], in series [2] and in series [3] was under 50000 nM throughout.

Take `Cn1c(=O)cc(Cc2nnc3n2N=C(c2cc4ccccc4oc2=O)CS3)c2ccccc21`: the IC50 in series [4] stood at 43.3 µg/mL (≈ 95.1 µM); in series [5], 20.4 µg/mL (≈ 44.8 µM).

As for `Cc1cc2c(n1-c1ccccc1)CCc1cc(S(=O)(=O)c3ccccc3)c(O)nc1-2`, the IC50 in series [6] is 400 to 3600 nM.

`NC(=O)c1cn([C@@H]2O[C@H](CO)[C@@H](O)[C@H]2O)c2ccc(Oc3ccccc3)cc2c1=O`: the IC50 in [7] was 76800 nM.

`CC[C@H](CC[C@@H](C)[C@H]1CC[C@H]2[C@@H]3CC=C4C[C@@H](O)CC[C@]4(C)[C@H]3CC[C@]12C)C(C)C` [BETA-SITOSTEROL]: in [6], the IC50 lay within 2500 to 15700 nM.

As for `CCOC(=O)c1cn(Cc2cn(-c3ccc(Cl)cc3)nn2)c2ccc(F)cc2c1=O`, the half-maximal inhibitory concentration (IC50) in series [8], in [9], in [10], in series [11] and in series [12] was 13100 to 70200 nM throughout.

On to `O=C(NO)c1cn(C2CC2)c2cc(-n3cc(CN4CCCCC4)nn3)c(F)cc2c1=O`, for which the IC50 in series [13], in [14], in series [15] and in series [16] was over 10000 nM each time.

As for `CCC[C@H](N)C(=O)NC1CCN(C2C(F)=Cc3c4n(cc(C(=O)O)c3=O)-c3ccccc3OC42)C1` (stereo partly specified), the IC50 in [17] lay in the range of 0.01 to 1 µg/mL (≈ 0.0207 to 2.07 µM); in series [18] it was 0.01 to 1 µg/mL (≈ 0.0207 to 2.07 µM); in [19], 0.01 to 1 µg/mL (≈ 0.0207 to 2.07 µM); in [20] it was 0.01 to 1 µg/mL (≈ 0.0207 to 2.07 µM); in [21], 0.01 to 1 µg/mL (≈ 0.0207 to 2.07 µM); in series [24], 30 to 490 nM. Moreover, the IC50 in series [25], in series [26], in series [27], in series [28], in series [29] and in series [30] was 30 to 490 nM in each case. Moreover, the half-inhibitory concentration (IC50) in [31] was in the range of 30 to 490 nM. The LD50 in series [22] and in series [23] was 59.6 mg/kg throughout.

On to `CN(C)Cc1cn(-c2cc3c(cc2F)c(=O)c(C(=O)NO)cn3C2CC2)nn1`, for which the IC50 in series [13], in series [14], in [15] and in [16] was over 10000 nM throughout.

For `C/C(=N\Nc1ccccc1)c1c(O)c2ccccc2n(-c2ccccc2)c1=O`, the IC50 in [32] and in series [33] was under 10 µg/mL throughout.

Compound `NC(=O)c1cn([C@@H]2O[C@H](CO)[C@@H](O)[C@H]2O)c2ccc(Nc3ccccc3)cc2c1=O` yielded an IC50 in series [7] of 64100 nM.

Regarding `O=c1c(/C(CCN2CCOCC2)=N/Nc2ccccc2)c(O)c2ccccc2n1-c1ccccc1`, the IC50 in series [32] and in [33] was under 20 µg/mL in each case.

As for `N#Cc1c(N)c2cc(-c3nc4ccccc4o3)ccc2[nH]c1=O`, the IC50 in series [34] came out at 26.7 nM; in [35], 35.7 nM.

Regarding `CCn1cc(C(=O)O)c(=O)c2cnc(N3CCN(C(=O)CCSc4nnnn4-c4cc(OC)c(OC)c(OC)c4)CC3)nc21`, the GI50 in series [36], in series [37] and in series [38] was 60 to 2000 nM throughout.
